Assay results as given in patent publication US20240122887A1, “THERAPEUTIC USES OF L-4-CHLOROKYNURENINE” (VISTAGEN THERAPEUTICS, INC., priority 2015, published 2024).

What was measured:
[1] = tested on: patients with a diagnosis of MDD; test: Treatment of major depressive disorder, HDRS / MADRS (Example 3); assay type: in vivo, human; details: 1,080 or 1,440 mg/day orally for 2 weeks
Experimental: Twenty-five patients, both male and female, ages 18 to 65, with a diagnosis of MDD are treated with either L-4-chlorokynurenine (1,080 or 1,440 mg/day given orally) for 2 weeks, similar in design to similar studies. [Ibrahim et al. 2012, Zarate et al. 2013, Zarate et al. 2006, Zarate et al. 2005.] […] [Montgomery et al. 1979] Additional indicators of therapeutic efficacy for a given patient could also be the proportion of subjects achieving remission (HDRS≤7) and response (≥50% reduction from baseline in HDRS total score); change from baseline in Hamilton Anxiety Rating Scale (HAM-A) [Hamilton 1959], Columbia Suicide Severity Rating Scale (C-SSRS) total scores [Posner et al. 2011], as well as other measures of mood or psychological states, for example Beck Depression Inventory (BDI) [Beck et al., 1974], the Visual Analogue Scale (VAS) [Aitken 1969], the Brief Psychiatric Rating Scale (BPRS) [Overall et al. 1962], the Clinician Administered Dissociative Scale (CADSS) [Bremner et al. 1998] and the Young Mania Rating Scale (YMRS) [Young et al. 1978].

[2] = tested on: capsaicin-induced hyperalgesia; test: Antihyperalgesic effect on capsaicin-induced hyperalgesia, VAS pain assessment, Phase 1b study; assay type: in vivo, human
Experimental: On Day 1 and Day 14 of the clinical study, two intradermal injections of 250 μg of capsaicin were injected sequentially into the volar aspect of alternate forearms to produce burning pain, secondary hyperalgesia, and a flare. The capsaicin USP (United States Pharmacopeia) was prepared according to the site's standard procedure and dissolved in 20% cyclodextrin at a concentration of 10 mg/mL. The first capsaicin injection in one forearm was given 1 hour after oral administration of L-4-chlorokynurenine or placebo, and the second capsaicin injection was given in the other forearm 2 hours after the administration of L-4-chlorokynurenine or placebo. The neurosensory testing began immediately at each capsaicin injection. The serial pain assessments using a 100-mm visual analog scale (VAS) occurred at preinjection and 0, 5, 10, 15, 30, 45, and 60 minutes after each capsaicin injection. The examiner asked the subject to rate the intensity by using the VAS of the spontaneous pain and elicited pain from the application of a 5.18 von Frey hair, 40° C. probe, and gentle stroking with a 1-inch foam brush. The VAS consisted of a 100-mm line with “no pain” written at the 0-mm end and the “worst imaginable pain” written at the 100-mm end. The distance in millimeters provided the pain measurement. […] At least eight determinations of the hyperalgesic area borders were made using the same assessments and starting at different angles. Additionally, subjects were asked to rate the pain intensity of a 1-minute 45° C. heat stimulus (brief thermal stimulation) applied to the anterior thigh at 4.5 hours (±5 minutes) after study drug administration, then every 30 minutes (±5 minutes) through 6 hours after study drug administration. A radiant temperature probe was applied to fix the skin temperature at 36° C. during the pain assessments. Subjects used the VAS for all pain assessments. All study assessment time points were anchored to Time 0, the time of study drug administration. […]

[3] = human, in vivo, po
Experimental: (§1) Subjects were randomized into one of three cohorts (360, 1,080, and 1,440 mg) and received a daily oral dose for 14 consecutive days. […] However, a total of 50 subjects were enrolled in this study. […] Forty-six subjects completed the study per protocol.
(§2) Blood was collected in 6-mL lithium heparin Vacutainer tubes. Samples were centrifuged, and the plasma was separated from the cells and frozen within 30 minutes after centrifugation. Centrifuged samples were placed on ice until they were placed in the freezer. Plasma samples were stored frozen at approximately −20° C. until their shipment to a contractor for analysis.
(§3) Baseline samples (0 minutes) were collected before the drug was administered on Day 1 and on Day 14. Samples were then collected at 0.5, 1, 1.5, 2, 4, 6, 8, 12, and 24 hours after dosing on Day 1 and Day 14.
(§4) Both assays used a plasma sample volume of 50.0 μg/mL.

[4] = tested on: patients with obsessive-compulsive disorder; test: Treatment of obsessive-compulsive disorder, OCD-VAS / Y-BOCS; assay type: in vivo, human; details: about 20 to about 2,000 mg/day
Experimental: Patients with obsessive-compulsive disorder (OCD) are treated with L-4-chlorokynurenine to reduce OCD symptoms. […] The dose of L-4-chlorokynurenine is selected from about 20 mg/day up to about 2,000 mg/day, more preferably about 300 mg/day to about 1,500 mg/day and more preferably about 700 mg/day to about 1,200 mg/day.

[5] = tested on: three animal models of peripheral tissue inflammation and nerve injury; test: Animal models of peripheral tissue inflammation and nerve injury; assay type: in vivo
[6] = tested on: patients with chronic tinnitus; test: Treatment of tinnitus, TQ / SF-36 / audiometric parameters (Example 5); assay type: in vivo, human; details: daily oral dose escalated 180, 720, 1440 mg/day
Experimental: One hundred male or female patients between 20-65 years of age with mon- or binaural chronic tinnitus lasting for at least 3-months are enrolled in the study. Patients are randomized into a drug and placebo groups, baseline psychometric and health measurements are taken, followed by blind administration of a daily single oral dose for 14-days of either L-4-chlorokynurenine (initial dose of 180 mg) or placebo. Subsequent psychometric and health measurements are taken at 3-, 7-, and 14-days post (prior to next drug administration) drug administration. At 14, and 28 days the dose of AV-101 is increased to 720 and 1440 mg/day respectively. At 42 and 70 days, all patients are given the panel of psychometric and health measurements. […]
Primary success measures are a statistically significant difference between the mean TQ scores of L-4-chlorokynurenine and placebo groups. […] Student t-test for independent samples or the Mann-Whitney test at each time point are used to assess the statistical significance of the quantitative data. The significance of the qualitative data is assessed with chi-square test or the Fisher exact test. To assess improvement over time and dose, TQ and secondary measurements are evaluated using Friedman Variance Analysis and similar tools for variance analysis.

[7] = cited from earlier work
[8] = tested on: dopaminergic neurons; details: brains of rats; cited from earlier work
[9] = target: NMDA receptor glycine B (GlyB) coagonist site (Homo sapiens, UniProt Q05586); details: vs naturally occurring kynurenic acid; cited from earlier work
[10] = Phase 1b clinical study, plasma pharmacokinetics after oral L-4-chlorokynurenine (LC-MS/MS); details: human plasma
Experimental: as §1, §2, §3, §4

Row | Mean L-4-chlorokynurenine AIC0-t [3] [ng·h/mL] | Mean L-4-chlorokynurenine Cmax and AIC0-t on Day 14 compared with Day 1 [3] | Mean t1/2 of L-4-chlorokynurenine [3] [h] | Compound | HDRS and/or MADRS total scores (overall depressive symptomatology) [1] | Least squares means of the AUPC for allodynia pain, mechanical hyperalgesia pain and heat hyperalgesia pain vs placebo ([2]; 1,080 mg (Cohort 2)) | Secondary efficacy endpoints (AUPC spontaneous pain, elicited pain von Frey hair, 40° C. probe), treatment vs placebo ([2]; 120 to 180 min Day 1, 60 to 180 min Days 1 and 14) | Area under the pain time curve (AUPC) for spontaneous pain, treatment vs placebo (primary efficacy endpoint) ([2]; each dose level, 120 to 180 minutes after dosing on Day 14) | OCD symptoms (OCD-VAS, Y-BOCS) [4] | Antihyperalgesic action in animal models [5] | Symptoms of tinnitus (TQ, SF-36) [6] | Access to the central nervous system ([7]; after oral or parenteral administration) | Firing rate and burst firing activity of dopaminergic neurons [8] | Potency and selectivity relative to endogenous KYNA [9] | Mean 7-chlorokynurenic acid AIC0-t ([10]; Day 1, after 1,440-mg oral dose of L-4-chlorokynurenine) [ng·h/mL] | Mean 7-chlorokynurenic acid AIC0-t ([10]; Day 1, after lowest oral dose (360 mg) of L-4-chlorokynurenine) [ng·h/mL] | Mean 7-chlorokynurenic acid Cmax and AIC0-t on Day 14 compared with Day 1 ([10]; once-daily oral doses of L-4-chlorokynurenine for 14 days) | Crossing of the blood-brain barrier ([7]; in vivo)
1 | 196000 | slightly lower on Day 14 | 1.64 to 1.82 | Nc1cc(Cl)ccc1C(=O)CC(N)C(=O)O [L-4-chlorokynurenine] | significant decrease | consistent decrease | no significant changes | no significant change | Patients show improvement | potent antihyperalgesic actions | show improvement | readily gains access to the central nervous system | increase |  |  |  |  | 
2 |  |  |  | O=C(O)c1cc(O)c2ccc(Cl)cc2n1 [7-chlorokynurenic acid] |  |  |  |  |  |  |  |  |  | about 20 × | 985 | 156 | slightly lower on Day 14 | does not cross the blood-brain barrier
